Measurements published in patent publication US7504399B2, “Piperazine enamines as antiviral agents” (priority 2006, dated 2009).

The compounds below were run on HIV-1 single-round infectious reporter virus (assay: Single-round infectious HIV-1 luciferase reporter virus infection assay in HeLa CD4 cells). Details: Human immunodeficiency virus 1, HeLa, 72 h, read-out: EC50 Group from Table 1.
Format: cell-based
Description: • Virus production-Human embryonic Kidney cell line, 293T, was propagated in Dulbecco's Modified Eagle Medium (Invitrogen, Carlsbad, Calif.) containing 10% fetal Bovine serum (FBS, Sigma, St. Louis, Mo.). • Virus infection—Human epithelial cell line, HeLa, expressing the HIV-1 receptor CD4 was propagated in Dulbecco's Modified Eagle Medium (Invitrogen, Carlsbad, Calif.) containing 10% fetal Bovine serum (FBS, Sigma, St. Louis, Mo.) and supplemented with 0.2 mg/mL Geneticin (Invitrogen, Carlsbad, Calif.). Virus-Single-round infectious reporter virus was produced by co-transfecting human embryonic Kidney 293 cells with an HIV-1 envelope DNA expression vector and a proviral cDNA containing an envelope deletion mutation and the luciferase reporter gene inserted in place of HIV-1 nef sequences (Chen et al., Ref. 41). Transfections were performed using lipofectAMINE PLUS reagent as described by the manufacturer (Invitrogen, Carlsbad, Calif.). Experiment • 1. HeLa CD4 cells were plated in 96 well plates at a cell density of 1×10^4 cells per well in 100 μl Dulbecco's Modified Eagle Medium containing 10% fetal Bovine serum and incubated overnight. • 2. Compound was added in a 2 μl dimethylsulfoxide solution, so that the final assay concentration would be ≦10 μM. • 3. 100 μl of single-round infectious reporter virus in Dulbecco's Modified Eagle Medium was then added to the plated cells and compound at an approximate multiplicity of infection (MOI) of 0.01, resulting in a final volume of 200 μl per well. • 4. Virally-infected cells were incubated at 37 degrees Celsius, in a CO2 incubator, and harvested 72 h after infection. • 5. Viral infection was monitored by measuring luciferase expression from viral DNA in the infected cells using a luciferase reporter gene assay kit, as described by the manufacturer (Roche Molecular Biochemicals, Indianapolis, Ind.). Infected cell supernatants were removed and 50 μl of lysis buffer was added per well. After 15 minutes, 50 μl of freshly-reconstituted luciferase assay reagent was added per well. Luciferase activity was then quantified by measuring luminescence using a Wallac microbeta scintillation counter. • 6. The percent inhibition for each compound was calculated by quantifying the level of luciferase expression in cells infected in the presence of each compound as a percentage of that observed for cells infected in the absence of compound and subtracting such a determined value from 100. • 7. An EC50 provides a method for comparing the antiviral potency of the compounds of this disclosure. The effective concentration for fifty percent inhibition (EC50) was calculated with the Microsoft Excel Xlfit curve fitting software. For each compound, curves were generated from percent inhibition calculated at 10 different concentrations by using a four paramenter logistic model (model 205). Table 1 is the key for the data in Table 2. Results

SMILES | EC50
COc1cnc(-n2ccnn2)c2[nH]cc(C(=O)C(=O)N3CCN(C(=C(C#N)C#N)c4ccccc4)CC3)c12 [EN-07] | < 1 µM
COc1cnc(Cl)c2[nH]cc(C(=O)C(=O)N3CCN(C(=C(C#N)C#N)c4ccccc4)CC3)c12 [EN-10] | < 1 µM
COc1cnc(-n2ccnn2)c2[nH]cc(C(=O)C(=O)N3CCN(/C(=C/C#N)c4ccccc4)CC3)c12 [EN-06] | < 1 µM
N#CC(C#N)=C(c1ccccc1)N1CCN(C(=O)C(=O)c2c[nH]c3ccccc23)CC1 [EN-02, 2-((4-(2-(1H-indol-3-yl)-2-oxoacetyl)piperazin-1-yl)(phenyl)methylene)malononitrile] | < 1 µM
N#C/C=C(\c1ccccc1)N1CCN(C(=O)C(=O)c2c[nH]c3ccccc23)CC1 [EN-01] | < 1 µM
N#CC(C#N)=C(c1ccccc1)N1CCN(C(=O)C(=O)c2c[nH]c3cccc(F)c23)CC1 [EN-11, 2-((4-(2-(4-fluoro-1H-indol-3-yl)-2-oxoacetyl)piperazin-1-yl)(phenyl)methylene)malononitrile] | < 1 µM
COc1cnc(-n2cnc(C)n2)c2[nH]cc(C(=O)C(=O)N3CCN(/C(=C/C#N)c4ccccc4)CC3)c12 [EN-05] | < 1 µM
N#C/C=C(\c1ccccc1)N1CCN(C(=O)C(=O)c2c[nH]c3c(Br)ccc(F)c23)CC1 [EN-03] | < 1 µM
O=C(O)/C=C(\c1ccccc1)N1CCN(C(=O)C(=O)c2c[nH]c3cccc(F)c23)CC1 [EN-09] | < 1 µM
COc1cnc(Cl)c2[nH]cc(C(=O)C(=O)N3CCN(/C(=C/C#N)c4ccccc4)CC3)c12 [EN-13] | < 1 µM
N#CC(C#N)=C(c1ccccc1)N1CCN(C(=O)C(=O)c2c[nH]c3c(-n4ccnn4)ncc(F)c23)CC1 [EN-08, 2-((4-(2-(4-fluoro-7-(1H-1,2,3-triazol-1-yl)-1H-pyrrolo[2,3-c]pyridin-3-yl)-2-oxoacetyl)piperazin-1-yl)(phenyl)methylene)malononitrile] | < 1 µM
